± gives the expanded uncertainty stated by the source.
Conditions: 101.33 kPa, Liquid, Vibrating tube method

mass density (298.15 K) | mass density (278.15 K) | mass density (283.15 K) | mass density (288.15 K) | mass density (293.15 K) | mass density (303.15 K) | mass density (308.15 K) | mass density (313.15 K) | mass density (318.15 K) | mass density (323.15 K) | mass density (328.15 K) | mass density (333.15 K) | mass density (338.15 K) | mass density (343.15 K) | Structure (SMILES)
1604.84 ± 0.78 kg/m3 |  |  |  |  |  |  |  |  |  |  |  |  |  | OC(C(F)(F)F)C(F)(F)F [1,1,1,3,3,3-hexafluoro-2-propanol]
1684.4 ± 0.9 kg/m3 | 1742.5 ± 0.9 kg/m3 | 1728.3 ± 0.9 kg/m3 | 1713.8 ± 0.9 kg/m3 | 1699.2 ± 0.9 kg/m3 | 1669.4 ± 0.9 kg/m3 | 1654.1 ± 0.8 kg/m3 | 1638.6 ± 0.8 kg/m3 | 1622.9 ± 0.8 kg/m3 | 1606.4 ± 0.8 kg/m3 | 1590.5 ± 0.8 kg/m3 |  |  |  | FC(F)(F)C(F)(F)C(F)(F)C(F)(F)C(F)(F)C(F)(F)F [perfluorohexane]
786.58 ± 0.23 kg/m3 |  |  |  |  |  |  |  |  |  |  |  |  |  | CO [methanol]
1786.6 ± 1 kg/m3 | 1841 ± 1 kg/m3 | 1827.6 ± 1 kg/m3 | 1814 ± 1 kg/m3 | 1800.4 ± 1 kg/m3 | 1772.7 ± 1 kg/m3 | 1758.7 ± 0.9 kg/m3 | 1744.5 ± 0.9 kg/m3 | 1730.3 ± 0.9 kg/m3 | 1715.8 ± 0.9 kg/m3 | 1701.2 ± 0.9 kg/m3 | 1686.4 ± 0.9 kg/m3 | 1671.5 ± 0.9 kg/m3 | 1656.3 ± 0.8 kg/m3 | FC(F)(F)C1(F)C(F)(F)C(F)(F)C(F)(F)C(F)(F)C1(F)F [perfluoro(methylcyclohexane)]

Reference: the NIST ThermoML archive (doi:10.1021/je500455u)
